# Experiment: Thermal analysis (differential scanning calorimetry / melting point): thermodynamic stability
# Type: physicochemical
# Conditions: based on DSC thermal analysis
# Experimental: Differential Scanning calorimetry (DSC). A differential scanning calorimeter, model DSC Q200 (TA Instrument, USA) was used to measure the thermal transitions of the samples. About 10 mg of each synthesized compound was placed into an aluminum pan and sealed. Each sample, except (S)-nicotinium 2,6-Dihydroxybenzoate, was scanned from 0 to 150° C. at 20° C./min under nitrogen flow for at least 2 full cycles. (S)-nicotinium 2,6-Dihydroxybenzoate was scanned from 0 to 175° C. at 20° C./min under nitrogen flow for at least 2 full cycles.
# Melting Point (MP): A Stuart SMP10 melting point apparatus was utilized to measure the melting point of each of the synthesized compounds. 4 replicates were run for each compound. The plateau temperature was set to 100° C. for each of the salts, except (S)-nicotinium D-malate, and then ramped at 2° C./minute. The plateau temperature was set to 80° C. for the (S)-nicotinium D-malate salt and ramped at 2° C./minute.
# Thermal Analysis. […] This was confirmed via differential scanning calorimetry (DSC) by a very broad endotherm 116.4° C. […] This was confirmed by DSC where in the sharp endotherm at 123.5° C. indicated the melting of this (S)-nicotinium L-malate salt. […] This was confirmed via DSC, wherein the sharp endotherm at 95.2° C. The orthorhombic P212121 (S)-nicotinium DL-malate was initially observed as having a broad melting point of 76-78° C. The was confirmed via DSC wherein a melting point of 77.8° C., though with a very broad curve. […] Monoclinic P21 (S)-nicotinium 2,6-dihydroxybenzoate salt had the highest melting observed thus far. The sharp endotherm at 158.5° C. confirmed the observed melting point. Monoclinic P21 (S)-nicotinium 2,5-dihydroxyterephthalate was observed initially as having a tight melting point range of 196-198° C.
row,Compound,thermodynamic / thermal stability
1,"CN1CCC[C@H]1c1cccnc1.O=C(O)c1cc(O)c(C(=O)O)cc1O [(S)-nicotinium 2,5-dihydroxyterephthalate]",highest observed thermal stability
2,"CN1CCC[C@H]1c1cccnc1.O=C(O)c1c(O)cccc1O [(S)-nicotinium 2,6-dihydroxybenzoate]",highest observed thermal stability
3,CN1CCCC1c1cccnc1.O=C(O)CC(O)C(=O)O [(S)-nicotinium D-malate],thermodynamically less stable than either of the (S)-nicotinium L-malate salts
4,"CN1CCC[C@H]1c1cccnc1.O=C(O)C[C@H](O)C(=O)O [monoclinic P21 (S)-nicotinium L-malate, (S)-nicotinium L-malate]",most thermodynamically favored and stable malate salt
5,CN1CCC[C@H]1c1cccnc1.O=C(O)C[C@H](O)C(=O)O [orthorhombic P212121 (S)-nicotinium L-malate],more thermodynamically stable than the orthorhombic P212121 (S)-nicotinium D-malate

# Same assay, conditions: based on DSC thermal analysis; listed as Monoclinic P21 (S)-nicotinium L-malate
row,Compound,thermodynamic / thermal stability
1,"CN1CCC[C@H]1c1cccnc1.O=C(O)C[C@H](O)C(=O)O [monoclinic P21 (S)-nicotinium L-malate, (S)-nicotinium L-malate]",thermodynamically more stable than the orthorhombic P212121 (S)-nicotinium L-malate

# Experiment: not given
# Conditions: UV λ=300 nm, air flow, 1H NMR
row,Compound,degradation after 24 hours of UV irradiation
1,"O=C(O)c1cc(O)c(C(=O)O)cc1O [2,5-Dihydroxyterepthalic Acid]","no 2,5-dihydroxyterephthalic acid degradation"
2,"CN1CCC[C@H]1c1cccnc1.O=C(O)c1cc(O)c(C(=O)O)cc1O [(S)-nicotinium 2,5-dihydroxyterephthalate]",no degradation
3,"CN1CCC[C@H]1c1cccnc1.O=C(O)c1c(O)cccc1O [(S)-nicotinium 2,6-dihydroxybenzoate]",no degradation
4,CN1CCCC1c1cccnc1.O=C(O)CC(O)C(=O)O [(S)-nicotinium D-malate],no degradation
5,CN1CCCC1c1cccnc1.O.O=C(O)c1cc(=O)[nH]c(=O)[nH]1 [(S)-nicotinium orotate monohydrate],no degradation
6,"CN1CCC[C@H]1c1cccnc1.O=C(O)C[C@H](O)C(=O)O [monoclinic P21 (S)-nicotinium L-malate, (S)-nicotinium L-malate]",no degradation
7,"CN1CCC[C@H]1c1cccnc1.O=C(O)c1ccccc1O [monoclinic P21 (S)-nicotinium salicylate, (S)-nicotinium salicylate]",no degradation
8,O=C(O)c1cc(=O)[nH]c(=O)[nH]1 [orotic acid],no orotic acid degradation
9,CN1CCC[C@H]1c1cccnc1.O=C(O)C[C@H](O)C(=O)O [orthorhombic P212121 (S)-nicotinium L-malate],no degradation

# Experiment: not given
# Conditions: cited from earlier work
row,Compound,pKa (Strongest Acidic)
1,"O=C(O)c1c(O)cc(O)cc1O [2,4,6-Trihydroxybenzoic Acid]",1.83
2,"O=C(O)c1c(O)cccc1O [2,6-Dihydroxybenzoic Acid]",1.51
3,Nc1cccc(C(=O)O)c1O [3-Aminosalicylic Acid],2.90
4,COc1ccc(C(=O)O)c(O)c1 [4-Methoxysalicylic Acid],3.09
5,"O=C(O)c1cc(Cc2ccc(O)c(C(=O)O)c2)ccc1O [5,5′-Methylenedisalicylic Acid]",2.94
6,COc1ccc(O)c(C(=O)O)c1 [5-Methoxysalicylic acid],2.52
7,NC(C(=O)O)C(=O)O [Aminomalonic Acid],0.45
8,COC(=O)[C@H](Cc1ccccc1)NC(=O)[C@@H](N)CC(=O)O [Aspartame],3.53
9,C[N+](C)(C)CC(=O)O [Betaine],2.26
10,O=C(/C=C/c1ccc(O)c(O)c1)O[C@@H](C(=O)O)[C@@H](O)C(=O)O [Caftaric Acid],2.96
11,C[N+](C)(C)CC(O)CC(=O)[O-] (stereo not shown) [Carnitine],4.20
12,O=C(O)C=Cc1ccccc1 [Cinnamic acid],4.01
13,CC(O)(CC(=O)O)C(=O)O (stereo not shown) [Citramalic Acid],3.35
14,OC[C@@H](O)[C@@H](O)CO [Erythritol],13.04
15,O=C(O)/C=C/C(=O)O [Fumaric Acid],3.55
16,O=C(O)[C@H](O)[C@@H](O)[C@@H](O)[C@H](O)CO [Galactonic Acid],3.39
17,O=C[C@H](O)[C@@H](O)[C@@H](O)[C@H](O)C(=O)O [Galacturonic Acid],3.24
18,O=C(O)/C=C\C(=O)O [Maleic Acid],3.05
19,CC1CCC(C(C)C)C(O)C1 (stereo not shown) [Menthol],19.55
20,COc1cccc(C(=O)O)c1 [Meta-Anisic Acid],3.84
21,COc1ccccc1C(=O)O [Ortho-Anisic Acid],3.73
22,COc1ccc(C(=O)O)cc1 [Para-Anisic Acid],4.37
23,CC(=O)C(=O)O [Pyruvic Acid],2.93
24,C=C1C[C@@]23CC[C@H]4[C@@](C)(CCC[C@@]4(C)C(=O)O)[C@@H]2CC[C@]1(O)C3 [Steviol],4.70
25,O=C(O)CCC(=O)O [Succinic Acid],3.55
26,OC[C@H]1O[C@H](O[C@]2(CCl)O[C@H](CCl)[C@@H](O)[C@@H]2O)[C@H](O)[C@@H](O)[C@H]1Cl [Sucralose],1.91
27,OC[C@H]1O[C@@](CO)(O[C@H]2O[C@H](CO)[C@@H](O)[C@H](O)[C@H]2O)[C@@H](O)[C@@H]1O [Sucrose],11.84
29,O=C(O)C(O)C(=O)O [Tartronic Acid],2.42
30,OC[C@@H](O)[C@H](O)[C@@H](O)CO [Xylitol],12.76

# Experiment: Aerosolization/Vaporization Analysis (iStick Pico with Sai atomizer, syringe as lung analog)
# Conditions: heating in bucket coil; decarboxylation of the acid coformer
row,Compound,degradation product formed during vaporization
1,"CN1CCC[C@H]1c1cccnc1.O=C(O)c1ccccc1O [monoclinic P21 (S)-nicotinium salicylate, (S)-nicotinium salicylate]",phenol was likely also formed
